The source of these data is PubChem BioAssay (NCI).

Among the test systems are CCRF-CEM leukemia; EKVX NSCLC; IGROV1 ovarian; LOX IMVI melanoma; NCI-H226 lung; OVCAR-8 ovarian; SF-268 CNS; SK-MEL-2 melanoma; SNB-19 CNS; U251 CNS.
Common to all, as to assay: NCI tumour cell line growth inhibition, 48 h

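Growth conditions: 96-well plates. Treatment: test compound, 48 hours, 5 concentrations. Analysis: linear interpolation between bracketing concentrations; unreached endpoints set to highest concentration. GI50 marks 50% less growth. At the TGI there is no net growth.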 A value given as a limit tells only on which side of the number the result lay.

Take `C[C@H](N[C@H]1CCC[C@]1(O)C#Cc1ccc2c(c1)OCO2)c1ccccc1`: the TGI in the assay with CCRF-CEM leukemia, in the assay on EKVX NSCLC, in the assay on IGROV1 ovarian, in the assay on LOX IMVI melanoma, with NCI-H226 lung and with OVCAR-8 ovarian was > 25 µM in each case. The TGI in the assay with SF-268 CNS, with SK-MEL-2 melanoma, in the assay on SNB-19 CNS and in the assay with U251 CNS was > 25 µM throughout.

On to `N#CCCOCN(CO)c1nc(N(CO)COCCC#N)nc(N(CO)COCCC#N)n1`, for which the TGI is 58 µM with CCRF-CEM leukemia; 93.7 µM in the assay on EKVX NSCLC; > 100 µM in the assay with IGROV1 ovarian; > 100 µM in the assay with LOX IMVI melanoma; 53.1 µM in the assay with NCI-H226 lung; 34.7 µM in the assay with OVCAR-8 ovarian. In addition, the TGI in the assay with SF-268 CNS is 45.1 µM; in the assay with SK-MEL-2 melanoma, 38.6 µM; in the assay with SNB-19 CNS it was > 100 µM; in the assay with U251 CNS, > 100 µM.

As for `COc1cc2c(cc1OC)C1Cc3cc(OC)c(OC)cc3C(C2)O1`, the TGI in the assay with CCRF-CEM leukemia, in the assay on EKVX NSCLC, with IGROV1 ovarian, with LOX IMVI melanoma, in the assay with NCI-H226 lung and with OVCAR-8 ovarian was > 100 µM each time. Also, the TGI in the assay on SF-268 CNS, with SK-MEL-2 melanoma, in the assay on SNB-19 CNS and with U251 CNS was > 100 µM in each case.

`CCOC(=O)C(=O)Nc1c(CC)cccc1C(C)CC` (stereo not given): the TGI in the assay on CCRF-CEM leukemia, in the assay with EKVX NSCLC, in the assay on IGROV1 ovarian, in the assay with LOX IMVI melanoma, in the assay with NCI-H226 lung and with OVCAR-8 ovarian was > 100 µM each time. In addition, the TGI in the assay with SF-268 CNS, in the assay with SK-MEL-2 melanoma, with SNB-19 CNS and with U251 CNS was > 100 µM in each case.

For `CCCC1=C(C(=O)OCC)C(c2ccccc2OC)C(C#N)=C(N)O1` (stereo not given), the GI50 was 19.4 µM in the assay with CCRF-CEM leukemia; > 100 µM in the assay with EKVX NSCLC; 14.7 µM in the assay with IGROV1 ovarian; 29.9 µM with LOX IMVI melanoma; 22.5 µM in the assay on NCI-H226 lung; 43.8 µM in the assay on OVCAR-8 ovarian. The GI50 was 37.8 µM in the assay with SF-268 CNS, > 100 µM in the assay with SK-MEL-2 melanoma, > 100 µM in the assay on SNB-19 CNS and 44.7 µM in the assay with U251 CNS. Also, the TGI with CCRF-CEM leukemia was 42.1 µM; with EKVX NSCLC, > 100 µM; in the assay with IGROV1 ovarian, 36.4 µM; in the assay on LOX IMVI melanoma, > 100 µM; in the assay with NCI-H226 lung, 58.2 µM; in the assay with OVCAR-8 ovarian, > 100 µM. The TGI in the assay with SF-268 CNS, in the assay with SK-MEL-2 melanoma, in the assay on SNB-19 CNS and with U251 CNS was > 100 µM in each case.

For the molecule `Cc1c2cc[n+](C)cc2c(C)c2c1[nH]c1ccc(Cl)cc12`, the TGI in the assay with CCRF-CEM leukemia came to 26.5 µM; with EKVX NSCLC, 14.1 µM; in the assay with IGROV1 ovarian it was 38.2 µM; in the assay with LOX IMVI melanoma, 77.8 µM; in the assay with NCI-H226 lung it was 4.57 µM; in the assay on OVCAR-8 ovarian, 15.5 µM. Further, the TGI in the assay with SF-268 CNS was found to be 0.831 µM; in the assay with SK-MEL-2 melanoma, 9.6 µM; in the assay with SNB-19 CNS, 1.21 µM; in the assay with U251 CNS, 1.15 µM.

Take `Nc1cccc2c1C1=NNC(=O)CC1C2` (stereo not given): the TGI in the assay with CCRF-CEM leukemia, in the assay on EKVX NSCLC, in the assay with IGROV1 ovarian, in the assay on LOX IMVI melanoma, with NCI-H226 lung and in the assay with OVCAR-8 ovarian was > 100 µM throughout. Moreover, the TGI with SF-268 CNS, in the assay with SK-MEL-2 melanoma, in the assay on SNB-19 CNS and in the assay with U251 CNS was > 100 µM each time.

Regarding `O=C(NCCNc1nccc(-c2c(-c3cccc(O)c3)nc3sccn23)n1)Nc1cccc(C(F)(F)F)c1`, the GI50 in the assay on CCRF-CEM leukemia was 3.25 µM; in the assay on EKVX NSCLC, 4.16 µM; in the assay with IGROV1 ovarian, 3.48 µM; in the assay with LOX IMVI melanoma, 4.05 µM; with NCI-H226 lung, 9.99 µM; with OVCAR-8 ovarian, 3.56 µM. Moreover, the GI50 in the assay on SF-268 CNS is 3.45 µM; in the assay on SK-MEL-2 melanoma, 2.8 µM; in the assay on SNB-19 CNS, 5.09 µM; in the assay on U251 CNS, 4.95 µM. Besides, the TGI was 13.7 µM in the assay with CCRF-CEM leukemia; 36.6 µM in the assay with EKVX NSCLC; 13.1 µM in the assay on IGROV1 ovarian; 26.2 µM in the assay on LOX IMVI melanoma; 28.5 µM in the assay on NCI-H226 lung; 11 µM with OVCAR-8 ovarian. For the same molecule, the TGI was 14.6 µM in the assay on SF-268 CNS, 6.07 µM in the assay on SK-MEL-2 melanoma, 36.2 µM in the assay on SNB-19 CNS and 23.6 µM in the assay on U251 CNS.

Turning to `COc1cc(NC(=O)CSc2nc3ccccc3c(=O)n2CCc2ccccc2)cc(OC)c1OC`, the GI50 is > 100 µM in the assay on CCRF-CEM leukemia; 4.8 µM with EKVX NSCLC; 1.93 µM with IGROV1 ovarian; 4.11 µM in the assay on LOX IMVI melanoma; 2.14 µM with NCI-H226 lung; 2.7 µM with OVCAR-8 ovarian. In addition, the GI50 with SF-268 CNS was 3.55 µM; in the assay on SK-MEL-2 melanoma, 2.32 µM; in the assay on SNB-19 CNS it was 3.49 µM; in the assay on U251 CNS, 2.1 µM. The TGI in the assay on CCRF-CEM leukemia is > 100 µM; with EKVX NSCLC, > 100 µM; in the assay with IGROV1 ovarian, 4.46 µM; with LOX IMVI melanoma, > 100 µM; in the assay with NCI-H226 lung, 7.16 µM; in the assay on OVCAR-8 ovarian, > 100 µM. Also, the TGI worked out at 43.9 µM in the assay on SF-268 CNS, 6.94 µM in the assay with SK-MEL-2 melanoma, 17.5 µM with SNB-19 CNS and 5.2 µM in the assay on U251 CNS.

On to `O=C(Nc1cccc([N+](=O)[O-])c1)C(=O)C(C(=O)c1ccccc1F)C1OC(=O)C2C=CC=CC21` (stereo not given), for which the TGI in the assay on CCRF-CEM leukemia is > 100 µM; with EKVX NSCLC it was > 100 µM; with IGROV1 ovarian it was > 100 µM; in the assay with LOX IMVI melanoma it was 51.7 µM; in the assay with NCI-H226 lung it was 52.9 µM; in the assay on OVCAR-8 ovarian, > 100 µM. The TGI with SF-268 CNS was 70.6 µM; in the assay with SK-MEL-2 melanoma, > 100 µM; with SNB-19 CNS, > 100 µM; in the assay with U251 CNS, 77.7 µM.

As to `c1ccc(CCN2CCOCC2)nc1`, the TGI with CCRF-CEM leukemia, in the assay with EKVX NSCLC, in the assay with IGROV1 ovarian, in the assay on LOX IMVI melanoma, in the assay with NCI-H226 lung and in the assay on OVCAR-8 ovarian was > 100 µM each time. Also, the TGI in the assay on SF-268 CNS, in the assay with SK-MEL-2 melanoma, in the assay with SNB-19 CNS and in the assay on U251 CNS was > 100 µM throughout.

Regarding `NC(=O)Nc1ccc(C(=O)NCCCNC(=O)c2ccc(NC(N)=O)cc2)cc1`, the TGI in the assay on CCRF-CEM leukemia, with EKVX NSCLC, in the assay on IGROV1 ovarian, in the assay with LOX IMVI melanoma, in the assay on NCI-H226 lung and with OVCAR-8 ovarian was > 100 µM throughout. The TGI with SF-268 CNS, with SK-MEL-2 melanoma, in the assay on SNB-19 CNS and with U251 CNS was > 100 µM in each case.
